Experiments:
Experiment in all cases: Hoechst 33342 nuclear staining (Table 3)
Design in all cases: key: 0 relating to no activity; 1 relating to weak activity comprising less than 50% of the cells; score 2 relating to strong activity comprising more than 50% of the cells
[1] = system: A20; format: cell-based, mouse
Description: This assay is performed in 96 well tissue culture plates. Appropriate number of cells (adherent cells: 3 - 5*10^3, suspension cells: 8 - 10*10^3) are being seeded out in 80 µl complete medium. Adherent cells are incubated for 24 h for proper spreading out before addition of test compounds while suspension cells are immediately treated with test compounds after seeding out. The test compounds are added in 20 µl complete medium containing max 5% DMSO. The final compound concentrations in the assays are 10 µM, 3 µM,1 µM and 0.3 µM, respectively. After 24 h or 48 h incubation at culture conditions, 10 µl medium containing Hoechst 33342 dye (Sigma B-2261) at 2-5 µg/ml are added to each well. The assay plates are then further incubated for 30 minutes and subsequently analyzed with a standard inverted fluorescence microscope. The readout allows the determination of the fraction of apoptotic nuclei as well as other morphological criteria specific for apoptosis as a function of the treatment. The following scores are used: 0 relating to no activity, 1 relating to weak activity comprising less than 50% of the cells and score 2 relating to strong activity comprising more than 50% of the cells.

[2] = system: HeLa; format: cell-based, human
In short: (§1)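 Adherent cells (3-5×10^3, pre-spread 24 h) or suspension cells (8-10×10^3) treated with compounds at 10, 3, 1 and 0.3 µM for 24 or 48 h, then Hoechst 33342 stained for 30 min. Apoptotic nuclear morphology scored by fluorescence microscopy: 0 none, 1 weak (<50% cells), 2 strong (>50% cells).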

[3] = system: Jurkat; format: cell-based, human
In short: as §1

[4] = system: K562; format: cell-based, human
In short: as §1

[5] = system: KB; format: cell-based, human
In short: as §1

| Structure (SMILES) | Hoechst 33342 nuclear staining ([1]; A20, 24h, conc 1 (µM)) | Hoechst 33342 nuclear staining ([1]; A20, 24h, conc 3 (µM)) | Hoechst 33342 nuclear staining ([1]; A20, 24h, conc 10 (µM)) | Hoechst 33342 nuclear staining ([1]; A20, 48h, conc 0.3 (µM)) | Hoechst 33342 nuclear staining ([1]; A20, 48h, conc 1 (µM)) | Hoechst 33342 nuclear staining ([1]; A20, 48h, conc 3 (µM)) | Hoechst 33342 nuclear staining ([1]; A20, 48h, conc 10 (µM)) | Hoechst 33342 nuclear staining ([2]; 24h, conc 0.3 (µM)) | Hoechst 33342 nuclear staining ([2]; 24h, conc 1 (µM)) | Hoechst 33342 nuclear staining ([2]; 24h, conc 3 (µM)) | Hoechst 33342 nuclear staining ([2]; 24h, conc 10 (µM)) | Hoechst 33342 nuclear staining ([2]; 48h, conc 0.3 (µM)) | Hoechst 33342 nuclear staining ([2]; 48h, conc 1 (µM)) | Hoechst 33342 nuclear staining ([2]; 48h, conc 3 (µM)) | Hoechst 33342 nuclear staining ([2]; 48h, conc 10 (µM)) | Hoechst 33342 nuclear staining ([3]; 24h, conc 0.3 (µM)) | Hoechst 33342 nuclear staining ([3]; 24h, conc 1 (µM)) | Hoechst 33342 nuclear staining ([3]; 24h, conc 3 (µM)) | Hoechst 33342 nuclear staining ([3]; 24h, conc 10 (µM)) | Hoechst 33342 nuclear staining ([3]; 48h, conc 0.3 (µM)) | other results |
| --- | --- | --- | --- | --- | --- | --- | --- | --- | --- | --- | --- | --- | --- | --- | --- | --- | --- | --- | --- | --- | --- |
| COc1cc2c(cc1OC)-c1c(Cl)c3nc4ccccc4nc3n1C(C)C2 (centres unmarked) [compound 12] | 0 | 0 | 0 | 0 | 0 | 0 | 2 (score 2 relating to strong activity comprising more than 50% of the cells) | 0 | 0 | 0 | 0 | 0 | 1 (1 relating to weak activity comprising less than 50% of the cells) | 2 (score 2 relating to strong activity comprising more than 50% of the cells) | 2 (score 2 relating to strong activity comprising more than 50% of the cells) | 0 | 0 | 1 (1 relating to weak activity comprising less than 50% of the cells) | 2 (score 2 relating to strong activity comprising more than 50% of the cells) | 1 (1 relating to weak activity comprising less than 50% of the cells) | Hoechst 33342 nuclear staining ([1]; A20, 24h, conc 0.3 (µM)): 0; Hoechst 33342 nuclear staining ([3]; 48h, conc 1 (µM)): 2 (score 2 relating to strong activity comprising more than 50% of the cells); Hoechst 33342 nuclear staining ([3]; 48h, conc 3 (µM)): 2 (score 2 relating to strong activity comprising more than 50% of the cells); Hoechst 33342 nuclear staining ([3]; 48h, conc 10 (µM)): 2 (score 2 relating to strong activity comprising more than 50% of the cells); Hoechst 33342 nuclear staining ([4]; K562, 24h, conc 0.3 (µM)): 0; Hoechst 33342 nuclear staining ([4]; K562, 24h, conc 1 (µM)): 0; Hoechst 33342 nuclear staining ([4]; K562, 24h, conc 3 (µM)): 0; Hoechst 33342 nuclear staining ([4]; K562, 24h, conc 10 (µM)): 2 (score 2 relating to strong activity comprising more than 50% of the cells); Hoechst 33342 nuclear staining ([4]; K562, 48h, conc 0.3 (µM)): 0; Hoechst 33342 nuclear staining ([4]; K562, 48h, conc 1 (µM)): 1 (1 relating to weak activity comprising less than 50% of the cells); Hoechst 33342 nuclear staining ([4]; K562, 48h, conc 3 (µM)): 2 (score 2 relating to strong activity comprising more than 50% of the cells); Hoechst 33342 nuclear staining ([4]; K562, 48h, conc 10 (µM)): 2 (score 2 relating to strong activity comprising more than 50% of the cells); Hoechst 33342 nuclear staining ([5]; 24h, conc 0.3 (µM)): 0; Hoechst 33342 nuclear staining ([5]; 24h, conc 1 (µM)): 0; Hoechst 33342 nuclear staining ([5]; 24h, conc 3 (µM)): 0; Hoechst 33342 nuclear staining ([5]; 24h, conc 10 (µM)): 2 (score 2 relating to strong activity comprising more than 50% of the cells); Hoechst 33342 nuclear staining ([5]; 48h, conc 0.3 (µM)): 0; Hoechst 33342 nuclear staining ([5]; 48h, conc 1 (µM)): 0; Hoechst 33342 nuclear staining ([5]; 48h, conc 3 (µM)): 2 (score 2 relating to strong activity comprising more than 50% of the cells); Hoechst 33342 nuclear staining ([5]; 48h, conc 10 (µM)): 2 (score 2 relating to strong activity comprising more than 50% of the cells) |
| CC1Cc2ccccc2-c2c(Cl)c3nc4ccccc4nc3n21 (centres unmarked) [compound 11] | 0 | 0 | 0 | 0 | 0 | 0 | 2 (score 2 relating to strong activity comprising more than 50% of the cells) | 0 | 0 | 0 | 0 | 0 | 0 | 0 | 2 (score 2 relating to strong activity comprising more than 50% of the cells) | 0 | 0 | 2 (score 2 relating to strong activity comprising more than 50% of the cells) | 2 (score 2 relating to strong activity comprising more than 50% of the cells) | 1 (1 relating to weak activity comprising less than 50% of the cells) | Hoechst 33342 nuclear staining ([3]; 48h, conc 1 (µM)): 2 (score 2 relating to strong activity comprising more than 50% of the cells); Hoechst 33342 nuclear staining ([3]; 48h, conc 3 (µM)): 2 (score 2 relating to strong activity comprising more than 50% of the cells); Hoechst 33342 nuclear staining ([3]; 48h, conc 10 (µM)): 2 (score 2 relating to strong activity comprising more than 50% of the cells); Hoechst 33342 nuclear staining ([4]; K562, 24h, conc 0.3 (µM)): 0; Hoechst 33342 nuclear staining ([4]; K562, 24h, conc 1 (µM)): 0; Hoechst 33342 nuclear staining ([4]; K562, 24h, conc 3 (µM)): 0; Hoechst 33342 nuclear staining ([4]; K562, 24h, conc 10 (µM)): 2 (score 2 relating to strong activity comprising more than 50% of the cells); Hoechst 33342 nuclear staining ([4]; K562, 48h, conc 0.3 (µM)): 0; Hoechst 33342 nuclear staining ([4]; K562, 48h, conc 1 (µM)): 0; Hoechst 33342 nuclear staining ([4]; K562, 48h, conc 3 (µM)): 1 (1 relating to weak activity comprising less than 50% of the cells); Hoechst 33342 nuclear staining ([4]; K562, 48h, conc 10 (µM)): 2 (score 2 relating to strong activity comprising more than 50% of the cells); Hoechst 33342 nuclear staining ([5]; 24h, conc 0.3 (µM)): 0; Hoechst 33342 nuclear staining ([5]; 24h, conc 1 (µM)): 0; Hoechst 33342 nuclear staining ([5]; 24h, conc 3 (µM)): 0; Hoechst 33342 nuclear staining ([5]; 24h, conc 10 (µM)): 0; Hoechst 33342 nuclear staining ([5]; 48h, conc 0.3 (µM)): 0; Hoechst 33342 nuclear staining ([5]; 48h, conc 1 (µM)): 0; Hoechst 33342 nuclear staining ([5]; 48h, conc 3 (µM)): 1 (1 relating to weak activity comprising less than 50% of the cells); Hoechst 33342 nuclear staining ([5]; 48h, conc 10 (µM)): 2 (score 2 relating to strong activity comprising more than 50% of the cells) |
| CCC1Cc2cc(OC)c(OC)cc2-c2cc3nc4ccccc4nc3n21 (centres unmarked) [compound 13] | 0 | 0 | 0 | 0 | 0 | 0 | 0 | 0 | 0 | 0 | 0 | 0 | 0 | 2 (score 2 relating to strong activity comprising more than 50% of the cells) | 2 (score 2 relating to strong activity comprising more than 50% of the cells) | 0 | 0 | 1 (1 relating to weak activity comprising less than 50% of the cells) | 2 (score 2 relating to strong activity comprising more than 50% of the cells) | 0 | Hoechst 33342 nuclear staining ([1]; A20, 24h, conc 0.3 (µM)): 0; Hoechst 33342 nuclear staining ([3]; 48h, conc 1 (µM)): 2 (score 2 relating to strong activity comprising more than 50% of the cells); Hoechst 33342 nuclear staining ([3]; 48h, conc 3 (µM)): 2 (score 2 relating to strong activity comprising more than 50% of the cells); Hoechst 33342 nuclear staining ([3]; 48h, conc 10 (µM)): 2 (score 2 relating to strong activity comprising more than 50% of the cells); Hoechst 33342 nuclear staining ([4]; K562, 24h, conc 0.3 (µM)): 0; Hoechst 33342 nuclear staining ([4]; K562, 24h, conc 1 (µM)): 0; Hoechst 33342 nuclear staining ([4]; K562, 24h, conc 3 (µM)): 0; Hoechst 33342 nuclear staining ([4]; K562, 24h, conc 10 (µM)): 2 (score 2 relating to strong activity comprising more than 50% of the cells); Hoechst 33342 nuclear staining ([4]; K562, 48h, conc 0.3 (µM)): 0; Hoechst 33342 nuclear staining ([4]; K562, 48h, conc 1 (µM)): 0; Hoechst 33342 nuclear staining ([4]; K562, 48h, conc 3 (µM)): 1 (1 relating to weak activity comprising less than 50% of the cells); Hoechst 33342 nuclear staining ([4]; K562, 48h, conc 10 (µM)): 2 (score 2 relating to strong activity comprising more than 50% of the cells); Hoechst 33342 nuclear staining ([5]; 24h, conc 0.3 (µM)): 0; Hoechst 33342 nuclear staining ([5]; 24h, conc 1 (µM)): 0; Hoechst 33342 nuclear staining ([5]; 24h, conc 3 (µM)): 0; Hoechst 33342 nuclear staining ([5]; 24h, conc 10 (µM)): 2 (score 2 relating to strong activity comprising more than 50% of the cells); Hoechst 33342 nuclear staining ([5]; 48h, conc 0.3 (µM)): 0; Hoechst 33342 nuclear staining ([5]; 48h, conc 1 (µM)): 0; Hoechst 33342 nuclear staining ([5]; 48h, conc 3 (µM)): 2 (score 2 relating to strong activity comprising more than 50% of the cells); Hoechst 33342 nuclear staining ([5]; 48h, conc 10 (µM)): 2 (score 2 relating to strong activity comprising more than 50% of the cells) |
